Reference: publication PMC6315844, “Two Novel Multi-Functional Peptides from Meat and Visceral Mass of Marine Snail Neptunea arthritica cumingii and Their Activities In Vitro and In Vivo” (Marine Drugs, 2018)
No end group written: not given here.

Experiments:
ACE = details: data recorded in biopep database; read-out: EC50 (ACE inhibition); cited from earlier work
Source text: ACE catalyzes the conversion of angiotensin I to angiotensin II, a potent vasoconstrictor, and promotes degradation of the vasodilator bradykinin [31]; thus, inhibition of ACE activity may help with reducing blood pressure. Because high-molecular-weight peptides cannot occupy the active site of ACE [32], ACE-inhibitory peptides are typically 2–30 amino acids in length.

[1] = DPPH radical scavenging activity; details: for DPPH Radical Scavenging Activity (%): fractions purified from M-F and VM-F using HILIC, all at the same concentration (not given), n = 3, mean ± SD; for EC50: natural purified peptide, Figure 3a, tests repeated three times, read-out: EC50 values of active peptides: DPPH
Protocol: The DPPH radical scavenging activity of the two peptide fractions was determined according to the methods described by Lee et al.. Vitamin C was used as a positive control. The EC50 values for DPPH radical scavenging was determined.

[2] = Ferric reducing capacity (reducing power, FRAP); details: natural purified peptide, Figure 3a, tests repeated three times, read-out: EC50 values of active peptides: FRAP
Protocol: The reducing power of the peptide fractions was assayed as described by Moayedi et al.. Vitamin C was used as a positive control. The reducing power of active peptides was assayed by determining EC50 values.

[3] = Hydroxyl radical scavenging activity; details: natural purified peptide; Figure 3a; tests repeated three times; read-out: EC50 values of active peptides: OH
Protocol: The hydroxyl radical scavenging activity of peptide fractions was determined according to the methods described by Dong et al.. Vitamin C was used as a positive control. The hydroxyl radical activity of active peptides was evaluated by EC50.

[4] = Thermal stability of synthetic peptides (DPPH and ACE activity retained); assay type: physicochemical; details: incubated at 20, 40, 60 and 80 °C, samples 90 to 1800 μg/mL, p > 0.05
Protocol: A series of samples with concentration range from 90 μg/mL (corresponding to 69.28 μM and 93.26 μM for [sequence] and [sequence], respectively) to 1800μg/mL were used in stability analysis.

[5] = synthetic peptides; simulated gastrointestinal digestion; samples 90 to 1800 μg/mL; p > 0.05
Protocol: A series of samples with concentration range from 90 μg/mL (corresponding to 69.28 μM and 93.26 μM for […] and […], respectively) to 1800μg/mL were used in stability analysis.
Thermal stability and gastrointestinal digestion stability of two synthetic peptides were determined according to Chen et al.. The incubated temperature for peptide solutions was set as 20, 40, 60, and 80 °C, respectively. DPPH radical scavenging activities and ACE inhibitory activities of the peptide solutions were measured as the above description.

[6] = test system: α-amylase (from Bacillus subtilis); assay: α-Amylase inhibitory activity; assay type: biochemical; details: for α-Amylase Inhibitory Activity (%): fractions purified from M-F and VM-F using HILIC, all at the same concentration (not given), n = 3, mean ± SD; for EC50: natural purified peptide, Figure 3a, tests repeated three times, read-out: EC50 values of active peptides: α-amylase
Source text: (§1) DPPH, angiotensin-converting enzyme (0.25 U·mL^−1, from the rabbit lung), N-hippuryl-His-Leu hydrate (HHL), hippuric acid, and amino acid standards were purchased from Sigma-Aldrich (Shanghai, China). α-Glucosidase protease (50 U/mg, from yeast), α-amylase protease (50 U/mg, from Bacillus subtilis), acarbose, 4-nitrophenyl-β-D-galactopyranoside, 6-aminoquinolyl-N-hydroxysuccinimidyl carbamate (AQC), ribonuclease (13,700 Da, from the bovine pancreas), aprotinin hydrochloride (6511 Da, from the bovine lung), angiotensin II (1046 Da), and L-serine (105 Da) were purchased from Yuanye Biological Technology Co. (Shanghai, China). Trypsin (250 U/mg), pepsin (250 U/mg), Sephadex G25 gel, nifedipine, and vitamin C were purchased from Solarbio (Beijing, China). Transgenic zebrafish Tg (krt4:NTR-hKikGR)^cy17 are maintained in our lab. All chemicals and reagents used for HPLC were of chromatographic grade and other chemicals and reagents were of analytical grade.
(§2) α-Amylase and α-glucosidase inhibitory activities were assayed as described by Uraipong et al.. Acarbose was used as a positive control. The inhibitory activity of active peptides was expressed as the EC50 value.

[7] = target: α-glucosidase (from yeast); assay: α-Glucosidase inhibitory activity; assay type: biochemical; details: natural purified peptide; Figure 3a; tests repeated three times; read-out: EC50 values of active peptides: α-glucosidase
Source text: as §1, §2

[8] = target: T1, angiotensin-converting enzyme (from the rabbit lung) (Oryctolagus cuniculus, UniProt P12822); assay: ACE-inhibitory activity; assay type: biochemical; details: for ACE-Inhibitory Activity (%): fractions purified from M-F and VM-F using HILIC, all at the same concentration (not given), n = 3, mean ± SD; for EC50: natural purified peptide, Figure 3a, tests repeated three times, read-out: EC50 values of active peptides: ACE
T1 construct: angiotensin-converting enzyme (0.25 U·mL^−1, from the rabbit lung); purchased Sigma-Aldrich (Shanghai, China); host or cells: rabbit lung (tissue-derived)
T1 sequence (P12822 34-1310): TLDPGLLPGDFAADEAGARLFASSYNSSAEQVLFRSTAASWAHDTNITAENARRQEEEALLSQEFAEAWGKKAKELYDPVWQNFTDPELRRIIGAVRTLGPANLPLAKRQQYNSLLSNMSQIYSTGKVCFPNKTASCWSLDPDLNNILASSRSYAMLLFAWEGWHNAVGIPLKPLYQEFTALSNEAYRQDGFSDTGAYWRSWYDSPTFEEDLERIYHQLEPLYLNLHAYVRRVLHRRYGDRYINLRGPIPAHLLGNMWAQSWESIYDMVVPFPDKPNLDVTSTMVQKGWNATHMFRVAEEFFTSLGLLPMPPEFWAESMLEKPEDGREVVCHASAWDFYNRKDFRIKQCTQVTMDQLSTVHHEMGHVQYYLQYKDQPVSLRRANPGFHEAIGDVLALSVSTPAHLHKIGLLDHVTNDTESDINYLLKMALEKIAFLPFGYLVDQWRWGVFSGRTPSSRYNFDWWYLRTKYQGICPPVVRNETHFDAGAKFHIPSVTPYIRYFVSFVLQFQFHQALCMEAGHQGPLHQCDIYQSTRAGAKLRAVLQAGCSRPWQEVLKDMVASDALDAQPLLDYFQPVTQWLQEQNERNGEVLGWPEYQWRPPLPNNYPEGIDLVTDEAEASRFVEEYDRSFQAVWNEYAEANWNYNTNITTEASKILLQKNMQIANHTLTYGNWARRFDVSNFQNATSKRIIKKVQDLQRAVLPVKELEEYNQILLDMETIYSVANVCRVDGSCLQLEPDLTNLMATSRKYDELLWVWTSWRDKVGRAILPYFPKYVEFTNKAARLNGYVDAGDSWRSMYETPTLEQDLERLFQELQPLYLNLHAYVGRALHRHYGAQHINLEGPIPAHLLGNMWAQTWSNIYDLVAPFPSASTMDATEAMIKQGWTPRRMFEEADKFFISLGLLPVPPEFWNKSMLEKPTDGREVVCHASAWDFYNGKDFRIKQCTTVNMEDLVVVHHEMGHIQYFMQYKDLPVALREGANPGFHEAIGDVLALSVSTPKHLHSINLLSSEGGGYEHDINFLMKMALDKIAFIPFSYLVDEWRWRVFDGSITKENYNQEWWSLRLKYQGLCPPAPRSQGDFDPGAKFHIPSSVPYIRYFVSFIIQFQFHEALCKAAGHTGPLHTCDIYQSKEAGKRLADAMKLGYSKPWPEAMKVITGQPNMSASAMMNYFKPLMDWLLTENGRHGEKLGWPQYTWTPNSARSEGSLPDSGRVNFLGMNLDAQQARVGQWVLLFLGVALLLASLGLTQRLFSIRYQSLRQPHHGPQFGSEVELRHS
Source text: as §1
ACE-inhibitory activity was measured according to the methods of Chen et al.. Nifedipine was used as a positive control. Results were reported as EC50 values.

[9] = test system: Tg (krt4:NTR-hKikGR)cy17 zebrafish; assay: In vivo antioxidant activity in MTZ-treated transgenic zebrafish embryos (skin fluorescent spots); set-up: species or system zebrafish (Danio rerio); details: 10 mM MTZ, 24 h, 28 °C, n = 10
Source text: For Tg (krt4:NTR-hKikGR)^cy17 zebrafish, MTZ treatment can lead to ROS overproduction, apoptosis of skin cells, and reduction of fluorescence spots on skin; thus, this model is used to assess ROS scavenging capacity of sample by measuring the growth rate of fluorescent spots (FS) on the skin of Tg (krt4:NTR-hKikGR)^cy17 transgenic zebrafish. Sample with antioxidant activity can remove ROS from transgenic zebrafish and prevent the skin cell apoptosis.
The number of fluorescence spots on the skin will increase after incubation with antioxidant. Thus, we can evaluate the ROS scavenging ability of samples on the basis of changes in the number of fluorescence spots compared with the MTZ-treatment. The in vivo antioxidant activity of the active peptides was evaluated according to previously described methods with some modification using the transgenic zebrafish line Tg (krt4:NTR-hKikGR)^cy17. Twenty-four-hour-old transgenic zebrafish embryos were added to 24-well cell culture plates (10 embryos/well) and incubated with 2 mL of 10 mM MTZ (dissolved in fish water) and active peptides for 24 h at 28 °C. […] After incubation, zebrafish embryos were anesthetized with tricaine (0.16%, w/v), and fluorescence was observed using an FSX100 Bio Imaging Navigator instrument. FS were counted using ImagePro-Plus, and the in vivo antioxidant activity (%) of active peptides was determined by Equation 1. […]

[10] = target: T2, angiotensin-converting enzyme (from the rabbit lung) (rabbit) (UniProt P12822)
T2 sequence: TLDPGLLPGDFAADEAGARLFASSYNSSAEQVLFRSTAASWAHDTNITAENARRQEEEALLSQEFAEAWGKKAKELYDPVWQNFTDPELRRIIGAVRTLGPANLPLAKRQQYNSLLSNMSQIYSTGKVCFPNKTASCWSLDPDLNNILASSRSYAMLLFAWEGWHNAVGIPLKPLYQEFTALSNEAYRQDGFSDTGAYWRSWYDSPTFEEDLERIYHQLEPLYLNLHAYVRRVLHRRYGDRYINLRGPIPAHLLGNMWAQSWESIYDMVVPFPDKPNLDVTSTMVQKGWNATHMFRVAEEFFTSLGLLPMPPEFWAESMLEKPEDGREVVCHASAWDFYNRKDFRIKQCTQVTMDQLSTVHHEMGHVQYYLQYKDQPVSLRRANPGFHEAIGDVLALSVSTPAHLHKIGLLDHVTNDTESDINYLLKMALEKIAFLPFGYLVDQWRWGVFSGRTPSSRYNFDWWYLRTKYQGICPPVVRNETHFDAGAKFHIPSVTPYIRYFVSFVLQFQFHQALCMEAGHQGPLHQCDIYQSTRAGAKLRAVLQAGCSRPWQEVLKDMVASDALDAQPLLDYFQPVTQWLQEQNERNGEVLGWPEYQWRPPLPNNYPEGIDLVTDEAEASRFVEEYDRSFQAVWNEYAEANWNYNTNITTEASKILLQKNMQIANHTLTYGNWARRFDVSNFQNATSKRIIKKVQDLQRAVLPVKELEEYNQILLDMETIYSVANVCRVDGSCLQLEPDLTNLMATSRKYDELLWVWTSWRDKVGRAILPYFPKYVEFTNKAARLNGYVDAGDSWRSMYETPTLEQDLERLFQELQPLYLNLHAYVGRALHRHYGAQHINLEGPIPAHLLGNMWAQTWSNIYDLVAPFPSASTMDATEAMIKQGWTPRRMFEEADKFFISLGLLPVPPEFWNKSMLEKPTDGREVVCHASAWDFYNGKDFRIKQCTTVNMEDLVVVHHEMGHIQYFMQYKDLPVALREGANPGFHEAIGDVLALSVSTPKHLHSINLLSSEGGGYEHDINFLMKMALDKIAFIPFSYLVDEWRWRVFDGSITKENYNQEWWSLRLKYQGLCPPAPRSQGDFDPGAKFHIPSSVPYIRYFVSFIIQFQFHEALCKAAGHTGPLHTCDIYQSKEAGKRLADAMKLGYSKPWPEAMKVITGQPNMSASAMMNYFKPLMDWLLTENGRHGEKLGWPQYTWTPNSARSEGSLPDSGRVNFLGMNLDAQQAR

YIPIQYVLSR
EC50 (ACE): 132 µM

YSQLENEFDR [M-P6, Tyr-Ser-Gln-Leu-Glu-Asn-Glu-Phe-Asp-Arg]
DPPH Radical Scavenging Activity (%) [1]: 91.87 ± 0.62% | EC50 [1]: 96.7 µM | EC50 [2]: 430 µM | EC50 [3]: 234 µM | effect of thermal treatment on EC50 values of DPPH radical scavenging and ACE inhibitory activities [4]: have thermal and gastrointestinal stability | effect of gastrointestinal digestion treatment on EC50 values of DPPH radical scavenging and ACE inhibitory activities [5]: have thermal and gastrointestinal stability | α-Amylase Inhibitory Activity (%) [6]: 56.15 ± 1.64% | EC50 [6]: 692 µM | EC50 [7]: 589 µM | ACE-Inhibitory Activity (%) [8]: 84.81 ± 0.35% | EC50 [8]: 75.6 µM | number of fluorescent spots (FS) compared to the control group (no MTZ or peptides) ([9]; high concentration): more FS were detected

YLYEIAR
EC50 (ACE): 16 µM

YIAEDAER [VM-P7, Tyr-Ile-Ala-Glu-Asp-Ala-Glu-Arg]
DPPH Radical Scavenging Activity (%) [1]: 82.60 ± 0.86% | EC50 [1]: 185 µM | EC50 [2]: 856 µM | EC50 [3]: 814 µM | effect of thermal treatment on EC50 values of DPPH radical scavenging and ACE inhibitory activities [4]: have thermal and gastrointestinal stability | effect of gastrointestinal digestion treatment on EC50 values of DPPH radical scavenging and ACE inhibitory activities [5]: have thermal and gastrointestinal stability | α-Amylase Inhibitory Activity (%) [6]: 53.85 ± 0.92% | EC50 [6]: 942 µM | EC50 [7]: 823 µM | ACE-Inhibitory Activity (%) [8]: 74.95 ± 1.24% | EC50 [8]: 236 µM | number of fluorescent spots (FS) compared with negative control (MTZ without peptides) ([9]; low concentration): no significant difference

YLYEIARR
EC50 (ACE): 86 µM

YSQLENEFDR [… (Tyr-Ser-Gln-Leu-Glu-Asn-Glu-Phe-Asp-Arg)]
ACE-inhibitory activity (%) of the HILIC-purified fraction M-P6 (enzyme activity; all fractions at the same concentration) [10]: 84.8%

YIAEDAER [YIAEDAER (Tyr-Ile-Ala-Glu-Asp-Ala-Glu-Arg)]
ACE-inhibitory activity (%) of the HILIC-purified fraction VM-P7 (enzyme activity; all fractions at the same concentration) [10]: 75%
